Test results taken from patent US7388014B2, “Quinazoline derivatives and therapeutic use thereof” (Rexahn Pharmaceuticals, Inc., priority 2004, dated 2008).

What follows are molecules tested on A549 (assay: Cell growth inhibition assay (SRB), A549). Details: A549 (lung), 96 hours.
Format: cell-based, Human
Excerpt: (§1) Cancer cells used in this study to determine the effect of quinazoline compounds were obtained from the following sources: Human OVCAR-3 (ovary), MCF-7 (breast, hormone-dependent), Hs 578T (breast), MDA-MB-231 (breast), HeLa (cervix), PC3 (prostate), HepG2 (liver), A549 (lung), Caki-1 (kidney), HT-29 (colon), HCT116 (colon) and PANC-1 (pancreas) from the American Type Culture Collection (ATCC) (Manassas, Va.); U251 (brain) from Riken (Japan); MKN-45 (stomach) from DSMZ (Germany); UMRC2 (kidney) and Lox IMVI (melanoma) from the United States National Cancer Institute (Bethesda, Md.). All cell lines except Hs 578T, MDA-MB-231, HCT116, UMRC2, Caki-1 and PANC-1 were grown in RPMI1640 medium (Invitrogen, Carlsbad, Calif.) supplemented with 10% fetal bovine serum (“FBS”), 1 mM sodium pyruvate, 10 mM HEPES and 100 U/ml penicillin and 100 μg/ml streptomycin (“P/S”). Hs 578T, MDA-MB-231, HCT116, UMRC2, Caki-1 and PANC-1 cells were maintained in Dulbecco's modified Eagle's medium (“DMEM”, Invitrogen) supplemented with 10% FBS, P/S, 10 mM HEPES and 2 mM L-glutamine. All cells were incubated at 37° C. under humidified 5% CO2.
(§2) The growth inhibition of the substituted quinazoline derivative compounds against a variety of human tumor cells was evaluated. The relative importance of particular substituent groups on the compounds was also studied. The substituted quinazoline derivative compounds, prepared as described above, were tested, along with DMSO as a control.
(§3) The growth inhibition assay of various compounds against 15 human tumor cell lines was performed using the Sulforhodamnine B (“SRB”) method (Skehan et al., J. National Cancer Institute, 82: 1107-1112 (1990)). Briefly, exponentially growing tumor cells were seeded into a 96-well plate at a density of 2-3×10^3 cells/well and treated with quinazoline compounds the next day. Triplicate wells were used for each treatment. The cells were. incubated with the various compounds for 96 hours at 37° C. in a humidified 5% CO2 atmosphere. After 96-hour incubation, cells were fixed with 10% trichloroacetic acid (“TCA”), incubated for 1 hour at 4° C., and washed 3 times with tap water. Subsequently cells were stained with 0.4% sulforhodamine B in 1% acetic acid for 30 minutes, washed 4 times with 1% acetic acid, and air-dried again. After 5 minutes agitation in 10 mM Tris solution, the absorbance of each well was measured at 530 nm using Benchmark Plus Microplate reader (Bio-Rad Laboratories, Hercules, Calif.).
(§4) To translate the OD530 values into the number of live cells in each well, the OD530 values were compared to those on standard OD530—versus—cell number curves generated for each cell line. The percent survival was calculated using the formula: % Survival=live cell number [test]/live cell number [control]×100
(§5) The IC50 values were calculated by non-linear regression analysis.

SMILES | IC50
Cn1cnc2cc3ncnc(NCCc4cccc(F)c4)c3cc21 [RX-1894] | > 3 µM
FC(F)(F)c1ccccc1CNc1ncnc2ccc(I)cc12 [RX-1682] | > 3 µM
Fc1cccc(CCNc2ncnc3ccc(I)cc23)c1 [RX-1668] | > 3 µM
Cn1cnc2cc3ncnc(NCCc4ccccc4F)c3cc21 [RX-1857] | > 3 µM

What follows are molecules tested on HepG2 (assay: Cell growth inhibition assay (SRB), HepG2). Details: HepG2 (liver), 96 hours, read-out: Inhibition of cell growth (IC50, μM) HepG 2.
Format: cell-based, Human
Excerpt: as §1, §2, §3, §4, §5

SMILES | IC50
Cn1cnc2cc3ncnc(NCCc4cccc(F)c4)c3cc21 [RX-1894] | 0.85 µM
FC(F)(F)c1ccccc1CNc1ncnc2ccc(I)cc12 [RX-1682] | 1.51 µM
Fc1cccc(CCNc2ncnc3ccc(I)cc23)c1 [RX-1668] | 0.3 µM
Cn1cnc2cc3ncnc(NCCc4ccccc4F)c3cc21 [RX-1857] | > 3 µM

Each molecule was assayed on MKN-45 (assay: Cell growth inhibition assay (SRB), MKN-45). Details: MKN-45 (stomach), 96 hours.
Format: cell-based, Human
Excerpt: as §1, §2, §3, §4, §5

SMILES | IC50
Cn1cnc2cc3ncnc(NCCc4cccc(F)c4)c3cc21 [RX-1894] | > 3 µM
FC(F)(F)c1ccccc1CNc1ncnc2ccc(I)cc12 [RX-1682] | > 3 µM
Fc1cccc(CCNc2ncnc3ccc(I)cc23)c1 [RX-1668] | > 3 µM
Cn1cnc2cc3ncnc(NCCc4ccccc4F)c3cc21 [RX-1857] | > 3 µM

These molecules were tested on PANC-1 (assay: Cell growth inhibition assay (SRB), PANC-1). Details: PANC-1 (pancreas), 96 hours.
Format: cell-based, Human
Excerpt: as §1, §2, §3, §4, §5

SMILES | IC50
Cn1cnc2cc3ncnc(NCCc4cccc(F)c4)c3cc21 [RX-1894] | > 3 µM
FC(F)(F)c1ccccc1CNc1ncnc2ccc(I)cc12 [RX-1682] | > 3 µM
Fc1cccc(CCNc2ncnc3ccc(I)cc23)c1 [RX-1668] | 1.83 µM
Cn1cnc2cc3ncnc(NCCc4ccccc4F)c3cc21 [RX-1857] | > 3 µM

Each molecule was assayed on HT-29 (assay: Cell growth inhibition assay (SRB), HT-29). Details: HT-29 (colon), 96 hours.
Format: cell-based, Human
Excerpt: as §1, §2, §3, §4, §5

SMILES | IC50
Cn1cnc2cc3ncnc(NCCc4cccc(F)c4)c3cc21 [RX-1894] | 1.7 µM
FC(F)(F)c1ccccc1CNc1ncnc2ccc(I)cc12 [RX-1682] | > 3 µM
Fc1cccc(CCNc2ncnc3ccc(I)cc23)c1 [RX-1668] | > 3 µM
Cn1cnc2cc3ncnc(NCCc4ccccc4F)c3cc21 [RX-1857] | > 3 µM

These molecules were tested on PC3 (assay: Cell growth inhibition assay (SRB), PC3). Details: PC3 (prostate), 96 hours.
Format: cell-based, Human
Excerpt: as §1, §2, §3, §4, §5

SMILES | IC50
Cn1cnc2cc3ncnc(NCCc4cccc(F)c4)c3cc21 [RX-1894] | > 3 µM
FC(F)(F)c1ccccc1CNc1ncnc2ccc(I)cc12 [RX-1682] | > 3 µM
Fc1cccc(CCNc2ncnc3ccc(I)cc23)c1 [RX-1668] | > 3 µM
Cn1cnc2cc3ncnc(NCCc4ccccc4F)c3cc21 [RX-1857] | > 3 µM

These molecules were tested on U251 (assay: Cell growth inhibition assay (SRB), U251). Details: U251 (brain), 96 hours.
Format: cell-based, Human
Excerpt: as §1, §2, §3, §4, §5

SMILES | IC50
Cn1cnc2cc3ncnc(NCCc4cccc(F)c4)c3cc21 [RX-1894] | 0.9 µM
FC(F)(F)c1ccccc1CNc1ncnc2ccc(I)cc12 [RX-1682] | 0.53 µM
Fc1cccc(CCNc2ncnc3ccc(I)cc23)c1 [RX-1668] | 0.27 µM
Cn1cnc2cc3ncnc(NCCc4ccccc4F)c3cc21 [RX-1857] | > 3 µM

Each molecule was assayed on HeLa (assay: Cell growth inhibition assay (SRB), HeLa). Details: HeLa (cervix), 96 hours.
Format: cell-based, Human
Excerpt: as §1, §2, §3, §4, §5

SMILES | IC50
Cn1cnc2cc3ncnc(NCCc4cccc(F)c4)c3cc21 [RX-1894] | > 3 µM
FC(F)(F)c1ccccc1CNc1ncnc2ccc(I)cc12 [RX-1682] | > 3 µM
Fc1cccc(CCNc2ncnc3ccc(I)cc23)c1 [RX-1668] | > 3 µM
Cn1cnc2cc3ncnc(NCCc4ccccc4F)c3cc21 [RX-1857] | > 3 µM

The molecules below were run on Lox IMVI (assay: Cell growth inhibition assay (SRB), Lox IMVI). Details: Lox IMVI (melanoma), 96 hours.
Format: cell-based, Human
Excerpt: as §1, §2, §3, §4, §5

SMILES | IC50
Cn1cnc2cc3ncnc(NCCc4cccc(F)c4)c3cc21 [RX-1894] | > 3 µM
FC(F)(F)c1ccccc1CNc1ncnc2ccc(I)cc12 [RX-1682] | > 3 µM
Fc1cccc(CCNc2ncnc3ccc(I)cc23)c1 [RX-1668] | > 3 µM
Cn1cnc2cc3ncnc(NCCc4ccccc4F)c3cc21 [RX-1857] | > 3 µM

What follows are molecules tested on OVCAR-3 (assay: Cell growth inhibition assay (SRB), OVCAR-3). Details: OVCAR-3 (ovary), 96 hours.
Format: cell-based, Human
Excerpt: as §1, §2, §3, §4, §5

SMILES | IC50
Cn1cnc2cc3ncnc(NCCc4cccc(F)c4)c3cc21 [RX-1894] | > 3 µM
FC(F)(F)c1ccccc1CNc1ncnc2ccc(I)cc12 [RX-1682] | > 3 µM
Fc1cccc(CCNc2ncnc3ccc(I)cc23)c1 [RX-1668] | > 3 µM
Cn1cnc2cc3ncnc(NCCc4ccccc4F)c3cc21 [RX-1857] | > 3 µM

What follows are molecules tested on MCF-7 (assay: Cell growth inhibition assay (SRB), MCF-7). Details: MCF-7 (breast, hormone-dependent), 96 hours.
Format: cell-based, Human
Excerpt: as §1, §2, §3, §4, §5

SMILES | IC50
Cn1cnc2cc3ncnc(NCCc4cccc(F)c4)c3cc21 [RX-1894] | 1.17 µM
FC(F)(F)c1ccccc1CNc1ncnc2ccc(I)cc12 [RX-1682] | 0.55 µM
Fc1cccc(CCNc2ncnc3ccc(I)cc23)c1 [RX-1668] | 0.23 µM
Cn1cnc2cc3ncnc(NCCc4ccccc4F)c3cc21 [RX-1857] | > 3 µM

These molecules were tested on MDA-MB-231 (assay: Cell growth inhibition assay (SRB), MDA-MB-231). Details: MDA-MB-231 (breast), 96 hours.
Format: cell-based, Human
Excerpt: as §1, §2, §3, §4, §5

SMILES | IC50
Cn1cnc2cc3ncnc(NCCc4cccc(F)c4)c3cc21 [RX-1894] | > 3 µM
FC(F)(F)c1ccccc1CNc1ncnc2ccc(I)cc12 [RX-1682] | > 3 µM
Fc1cccc(CCNc2ncnc3ccc(I)cc23)c1 [RX-1668] | > 3 µM
Cn1cnc2cc3ncnc(NCCc4ccccc4F)c3cc21 [RX-1857] | > 3 µM

These molecules were tested on Hs 578T (assay: Cell growth inhibition assay (SRB), Hs 578T). Details: Hs 578T (breast), 96 hours.
Format: cell-based, Human
Excerpt: as §1, §2, §3, §4, §5

SMILES | IC50
Cn1cnc2cc3ncnc(NCCc4cccc(F)c4)c3cc21 [RX-1894] | > 3 µM
FC(F)(F)c1ccccc1CNc1ncnc2ccc(I)cc12 [RX-1682] | > 3 µM
Fc1cccc(CCNc2ncnc3ccc(I)cc23)c1 [RX-1668] | 0.89 µM
Cn1cnc2cc3ncnc(NCCc4ccccc4F)c3cc21 [RX-1857] | > 3 µM

Each molecule was assayed on UMRC2 (assay: Cell growth inhibition assay (SRB), UMRC2). Details: UMRC2 (kidney), 96 hours.
Format: cell-based, Human
Excerpt: as §1, §2, §3, §4, §5

SMILES | IC50
Cn1cnc2cc3ncnc(NCCc4cccc(F)c4)c3cc21 [RX-1894] | > 3 µM
FC(F)(F)c1ccccc1CNc1ncnc2ccc(I)cc12 [RX-1682] | > 3 µM
Fc1cccc(CCNc2ncnc3ccc(I)cc23)c1 [RX-1668] | 1.83 µM
Cn1cnc2cc3ncnc(NCCc4ccccc4F)c3cc21 [RX-1857] | > 3 µM

The molecules below were run on Caki-1 (assay: Cell growth inhibition assay (SRB), Caki-1). Details: Caki-1 (kidney), 96 hours.
Format: cell-based, Human
Excerpt: as §1, §2, §3, §4, §5

SMILES | IC50
Cn1cnc2cc3ncnc(NCCc4cccc(F)c4)c3cc21 [RX-1894] | 2.33 µM
FC(F)(F)c1ccccc1CNc1ncnc2ccc(I)cc12 [RX-1682] | > 3 µM
Fc1cccc(CCNc2ncnc3ccc(I)cc23)c1 [RX-1668] | 2.93 µM
Cn1cnc2cc3ncnc(NCCc4ccccc4F)c3cc21 [RX-1857] | 1.57 µM
